“And” between values parts separate entries of the source, which are not always exact repeats. Equal values may be shown once.

Data set [1] in a line: Plasma pharmacokinetics after single-gavage administration of IXA to mice. The note with it: single oral IXA 50 mg/kg BW, data not shown. The format is in vivo, C57/BL6 mice. The procedure:
(§1) Six‐week‐old male C57/BL6 mice (initial BW: 19–24 g; Japan SLC, Shizuoka, Japan) were housed in a room maintained at 23–26°C with a 12‐h light–dark cycle. During the 1‐week acclimatization period, they were allowed free access to a commercial diet (Oriental Yeast Co., Tokyo, Japan) and water. Two days before the experiment, they were fed AIN‐93M (Oriental Yeast Co.). Before drug administration, they were fasted for 20 h, but had free access to water. IXA dissolved in 3% hydroxypropyl‐β‐cyclodextrin and 5% ethanol (Fujifilm; Wako Pure Chemical Corp., Osaka, Japan) was named the injection solution and administered (50 mg/kg BW) to mice intragastrically using a gastric feeding tube (AS ONE, Osaka, Japan). Blood, brain, thymus, heart, lung, liver, spleen, pancreas, kidney, and gastrocnemius muscle were collected 0.5, 1, 2, 4, 8, 12, 24, and 48 h after administration. We also set up a control group, and mice in this group were sacrificed just before we started administering IXA at 0 h. At 4 h after administration, mice were allowed free access to AIN‐93 M. Plasma was isolated by centrifugation at 17 × 10^3 m/s^2 (5911, Kubota, Tokyo, Japan) for 5 min at 4°C. All tissues were dissected, weighed, and immediately frozen in liquid nitrogen. All samples were stored at −80°C until analysis.
(§2) Plasma samples were deconjugated by β‐glucuronidase type H‐1 (which has β‐glucuronidase and sulphatase activity; Sigma, St. Louis, MO, USA; G0751) to convert aglycon from conjugated metabolites of IXA and 8‐PN, as described in a previous report (Y. Tanaka et al., [2022]). Briefly, 100 μL of plasma was mixed with 900 μL of 0.1 mol/L sodium acetate buffer (pH 4.7), 200 μL of 50 mmol/L ascorbic acid, and 1 mL of 1.67 μkat/100 μL of β‐glucuronidase type H‐1, and then incubated for 30 min at 37°C. Then, 2.4 nmol of QTM was added to the samples as the internal standard. The liberated aglycone was extracted using ethyl acetate (Kanto Kagaku, 14,029‐2B).
(§3) The plasma and tissue extracts were evaporated using a Centrifugal Evaporator (EYERA, Tokyo, Japan, CVE‐3000). The samples were stored at −80°C until the next day. Then, the samples were dissolved in 120 μL of a mobile phase solution and divided into two test tubes. The first sample was injected into the HPLC with an ultraviolet detection system (Shimadzu, Kyoto, Japan).
(§4) IXA and 8‐PN concentrations were determined by their respective standard curves using an internal standard method. A Cadenza 3‐μm CD‐C18 HPLC column (CD005, 150 × 4.6 mm; Imtakt Corporation, Kyoto, Japan) was equipped for HPLC (λ = 295 nm). The mobile phase consisted of methanol:water:acetic acid (60:35:5, v/v/v). The flow rate was set at 1.0 mL/min. […] Because clear peaks over 4.5 pmol/sample were detected for IXA and 8‐PN by visual evaluation, we determined that these concentrations were the peak limit of detections for each flavonoid. We applied calibration curves in the IXA/QTM concentration ratio range of 0.007–35.1 (R ^2 = .9955).

Data set [2] is described as follows: Tissue distribution after single-gavage administration of IXA to mice. The format is in vivo, C57/BL6 mice. The following applies: for 8-PN accumulation, single-ingestion test (at 24 h) / AUC (0–48 h) 8-PN/IXA / C max 8-PN: mice; for 8-PN accumulation, single-ingestion test (at 24 h): single IXA 50 mg/kg BW; for 8-PN accumulation, single-ingestion test (at 24 h) / C max 8-PN: metabolite; for AUC (0–48 h) 8-PN/IXA / C max 8-PN: single oral IXA 50 mg/kg BW. The procedure: as §1
(§5) Tissue sample deconjugation was performed as described in a previous report with slight modifications (Tanaka et al., [2022]). Tissues were homogenized in phosphate‐buffered saline (pH 7.4), which was nine times the tissue volume. The tissue homogenate was incubated in 50 mmol/L ascorbic acid (one‐fifth the volume of phosphate‐buffered saline) and 1.67 μkat/100 μL of β‐glucuronidase type H‐1 in 0.1 mol/L sodium acetate buffer (pH 4.7, nine times the volume of the sample) for 2 h at 37°C. Then, 2.4 nmol of QTM was added to samples as an internal standard. The supernatant was isolated by centrifugation at 17 × 10^3 m/s^2 (Kubota) for 5 min at 4°C. Then, methanol (Kanto Kagaku, 25183‐2B) was added to the pellets, and they were shaken for 1 min. The methanol layer and pellets were separated by centrifugation at 17 × 10^3 m/s^2 (Kubota, RY1071‐A000) for 5 min at 4°C. Methanol extraction was repeated three times. Finally, methanol extracts were mixed with the supernatant (the composition of the mixture was 30% methanol) and then applied to an Inert Sep C8 (200 mg/3 mL; GL Sciences, Tokyo, Japan; 5010‐61082) cartridge. The cartridge was preconditioned with 6 mL of 2% acetic acid in methanol, and then 9 mL of 2% acetic acid in water. The extracted tissue was passed through the cartridge, and it was washed with 5 mL of 2% acetic acid in 30% methanol aq. The flavonoids were eluted with 10 mL of 2% acetic acid in methanol.
as §3, §4

The nature of data set [3]: Tissue and plasma accumulation after daily gavage administration of IXA to mice for 14 days. The format is in vivo, C57/BL6 mice. The following applies: IXA 30 mg/kg BW daily 14 days, metabolite, 24 h after final administration. The procedure:
Animal species, age, sex, initial BW, feeding conditions, and dosage method were the same as those for the single gavage administration test, but the dose was 30 mg/kg BW. […] Daily gavage administration without fasting was performed at 12:00 PM for 14 days. The final BW was 21–26 g. Blood, brain, thymus, heart, lung, liver, spleen, kidney, and gastrocnemius muscle were collected 24 h after the final administration. The sample collection method was the same as that for the single gavage administration test.
as §2, §5, §3, §4

Data set [4] is described as follows: Liver accumulation after intragastric IXA administration at various concentrations to rats for 28 days. The format is in vivo, Sprague–Dawley rats. The note with it: rat liver. As for the experimental part:
Six‐week‐old female Sprague–Dawley rats (Charles River Laboratories Japan, Inc., Yokohama, Japan) were housed in a room maintained at 20–26°C on a 12‐h light–dark cycle. The initial BW of rats was 176–179 g. They were allowed free access to a commercial diet (CRF‐1) and water during the experiment. IXA dissolved in injection solution was administered intragastrically to rats (112.5, 225, 360, 450, and 1500 mg/kg BW) daily for 28 days using a gastric feeding tube. We also set up a control group to which the injection solution was administered. The final BW of rats was 231–241 g. The liver was collected the day after the last administration. The rats were fasted for 16–24 h before they were euthanized, but they had free access to water. Liver samples were stored at −80°C until analysis.
as §5
The plasma and tissue extracts were evaporated using a Centrifugal Evaporator (EYERA, Tokyo, Japan, CVE‐3000). The samples were stored at −80°C until the next day. Then, the samples were dissolved in 120 μL of a mobile phase solution and divided into two test tubes. […]
IXA and 8‐PN concentrations were determined by their respective standard curves using an internal standard method. […] Because clear peaks over 4.5 pmol/sample were detected for IXA and 8‐PN by visual evaluation, we determined that these concentrations were the peak limit of detections for each flavonoid. […]

Regarding “4,5,7‐trihydroxy‐8‐prenylflavanone [8‐PN]”, the “8-PN in the plasma during the experiment” value in data set [1] is listed as “not observed”. In addition, the “8-PN accumulation, single-ingestion test (at 24 h)” value in data set [2] (liver) is given as 4.6 ± 1.8 nmol/g of tissue; in data set [2] (lung), 1.8 ± 0.9 nmol/g of tissue. Also, the “AUC (0–48 h) 8-PN/IXA” value is 26% in data set [2] (liver); 109% and 109.3% in data set [2] (lung); 1% in data set [2] (pancreas). Moreover, the “C max 8-PN” value in data set [2] (liver, measured at 24 h) is recorded as 4.6 ± 1.8 nmol/g of tissue; in data set [2] (lung, measured at 2 h), 4.5 ± 2.5 nmol/g of tissue; in data set [2] (pancreas, measured at 1 h), 0.6 ± 0.5 nmol/g of tissue. In addition, the “8-PN accumulation, 14-day repeated-ingestion test” value is reported as 0.8 ± 0.7 nmol/g of tissue in data set [3] (brain); “not detected” in data set [3] (heart); 2.1 ± 0.4 nmol/g of tissue in data set [3] (liver); 3.9 ± 3.5 nmol/g of tissue in data set [3] (lung); 0.1 ± 0.0 nmol/g of tissue in data set [3] (muscle); “not detected” in data set [3] (plasma). In addition, the “8-PN accumulation, 14-day repeated-ingestion test” value is given as 0.6 ± 0.6 nmol/g of tissue in data set [3] (spleen) and 0.6 ± 0.5 nmol/g of tissue in data set [3] (thymus). For the same compound, the “amount of 8-PN relative to that of IXA (times higher)” value in data set [4] (IXA 112.5 mg/kg, 28 days) is reported as “approximately two”. Moreover, the “8-PN levels compared with those of IXA” value in data set [4] (IXA 1500 mg/kg, 28 days) is reported as “approximately 7.4%”. In data set [4] (IXA 112.5–1500 mg/kg BW once a day for 28 days, Pearson), the “correlation coefficient between dose-concentration and accumulation” value is given as “−.255”.

On to `CC(C)=CCc1c(O)cc2c(c1O)C(=O)C[C@@H](c1ccc(O)cc1)O2` [6‐PN, 6‐prenylnaringenin], for which the “presence of 6-PN in the samples analyzed in this study” value in data set [2] (mouse, in vivo) is reported as “not detected”.

The values are drawn from article PMC10916623, “Tissue distribution and pharmacokinetics of isoxanthohumol from hops in rodents” (Food Science & Nutrition, 2023).
